Experimental data as given in US20110189318A1, “METHODS FOR ENHANCING THE EXPRESSION OF INTRACELLULAR REDOX-ASSOCIATED FACTORS” (priority 2010, published 2011).

How the values were obtained:
thioredoxin reductase = experiment: Thioredoxin reductase activity in lysates of treated keratinocytes; type: cell-based; conditions: normal human epidermal keratinocytes, 10 μM, 24 hours, relative to control; FIG. 5
Description: Normal human epidermal keratinocytes (KK-4009, KURABO) were cultured in Defined Keratinocyte-SFM medium (10744-019, GIBCO) with 5% CO2 under high humidity at 37° C. For the cells with 100% of final density, the medium was replaced with EpiLife™ Calcium-Free Phenol Red Free medium (M-EPICF/PRF-500, KURABO) whose calcium concentration had been adjusted to 1.5 mM. Twenty-four hours later, kaempferol (K0018, Tokyo Chemical Industry Co., Ltd) or quercetin (173-00403, Wako Pure Chemical Industries, Ltd.) was added so as to have a final concentration of 10 μM. Twenty-four hours after adding the agents, the cells were dissolved in lysis buffer, and the insoluble fraction was removed by centrifugation at 14,000 rpm, 4° C. for 15 minutes. The amount of total protein in the soluble fraction was quantified, and then thioredoxin reductase activity was measured by the method of Arne Holmgren et al. (METHODS IN ENZYMOLOGY, 1995, 252, 199-208).

thioredoxin superfamily = experiment: Screen for flavonoid compounds enhancing expression of thioredoxin superfamily in keratinocytes; type: cell-based; conditions: normal human epidermal keratinocytes, 10 μM, 24 hours; FIG. 3
Description: (§1) Normal human epidermal keratinocytes (KK-4009, KURABO) were cultured in Defined Keratinocyte-SFM medium (10744-019, GIBCO) with 5% CO2 under high humidity at 37° C. For the cells with 100% of final density, the medium was replaced with EpiLife™ Calcium-Free Phenol Red Free medium (M-EPICF/PRF-500, KURABO) whose calcium concentration had been adjusted to 1.5 mM. Twenty-four hours later, each of the following agents was added so as to have a final concentration of 10 μM.
Twenty-four hours after adding the above agents, the mRNA expression levels of the redox-associated factors were quantified by the same method as Example 1.

[1] = test system: thioredoxin reductase and glutathione reductase; experiment: mRNA expression of redox-associated factors in skin-equivalent models (q-PCR); type: cell-based, human; conditions: epidermal layer, 2 μM or 10 μM, 24 hours, FIG. 2
Description: Skin-equivalent models were made from normal human keratinocytes (Invitrogen), normal human fibroblasts (ATCC) and collagen I (Sigma), and cultured in Dulbecco's Modified Eagle's Medium (D-MEM) (Invitrogen) with 5% CO2 under high humidity at 37° C. Two μM or 10 μM kaempferol was added into the culture medium, and the models were cultured for twenty-four hours. Then RNA was isolated from epidermal layer of the skin-equivalent models by using a QIAGEN mRNA isolation kit. Subsequently, mRNAs of thioredoxin reductase and glutathione reductase, and 36B4 as an internal standard, were quantified by q-PCR (quantitative PCR by Bio-Rad MyiQ™ single color real time PCR detection system) using the Real-time PCR kit (Bio-Rad). The primers were purchased from QIAGEN (TXNRD2: #QT00070371; GSR; #QT00038325). The amounts of thioredoxin reductase and glutathione reductase were divided by the mRNA amount of 36B4 to obtain the mRNA expression level.

[2] = test system: redox-associated factors (thioredoxin reductase, thioredoxin, glutathione reductase, glutaredoxin); experiment: mRNA expression of redox-associated factors in normal human epidermal keratinocytes (RT-PCR); type: cell-based; conditions: 10 μM, 24 hours, compared with vitamin E and lipoic acid, FIG. 1
Description: as §1, with “kaempferol (K0018, Tokyo Chemical Industry Co., Ltd), vitamin E (95240, FULKA), or lipoic acid ((+/−)-α-lipoic acid (T1395, SIGMA)” for “each of the following agents”
Twenty-four hours after adding the above agents, RNA was isolated by using QIAZOL Lysis Reagent (79306, QIAGEN) and purified by using RNeasy Kit (74106, QIAGEN). Subsequently, mRNAs of thioredoxin reductase, thioredoxin, glutathione reductase, glutaredoxin, and the ribosomal protein as an internal standard were quantified by the LightCycler™ software (Roche) using QuantiTect™ SYBR Green RT-PCR Kit (204243, QIAGEN). The Sequences of the used primers are shown below.
The mRNA amounts of thioredoxin reductase, thioredoxin, glutathione reductase and glutaredoxin were divided by the mRNA amount of the ribosomal protein to obtain the mRNA expression levels.

IL1β = experiment: Suppression of expression of inflammatory cytokine IL1β mRNA in keratinocytes; type: cell-based; conditions: normal human epidermal keratinocytes, kaempferol 10 μM, extracts 0.1%, 24 hours; FIG. 6
Description: Normal human epidermal keratinocytes (KK-4009, KURABO) were cultured in Defined Keratinocyte-SFM medium (10744-019, GIBCO) with 5% CO2 under high humidity at 37° C. For the cells with 100% of final density, the medium was replaced with EpiLifeTM Calcium-Free Phenol Red Free medium ([…]) in which calcium concentration had been adjusted to 1.5 mM. Twenty-four hours later, kaempferol was added to have 10 μM of final concentration and each of the following plant extracts was added to have a final concentration of 0.1%. kaempferol ([…], Tokyo Chemical Industry Co., Ltd); K. galanga extract: which is obtained by the extraction of Kaempferia galanga rhizomes with 50% 1,3-butylene glycol; Ginkgo leaf extract: which is obtained by resolving 50% ethanol extract from Ginkgo biloba L. leaves in 1,3-butylene glycol. Twenty-four hours after adding the above agents, RNA was isolated by the same method as Example 1, and the mRNA expression level of the inflammation-associated factor (IL1β) was quantified. The used primers are shown below. The mRNA amount of IL1β was divided by the mRNA amount of the ribosomal protein to obtain the mRNA expression level.

| Compound | thioredoxin reductase activity (thioredoxin reductase) | expression of the thioredoxin superfamily (mRNA expression level) (thioredoxin superfamily) | expression of the redox-associated factors (mRNA expression level) [1] | expression of the redox-associated factors (mRNA expression level) [2] | suppression of the inflammatory cytokine IL1β (mRNA expression level) (IL1β) |
| --- | --- | --- | --- | --- | --- |
| O=c1c(O)c(-c2ccc(O)c(O)c2)oc2cc(O)cc(O)c12 [quercetin, Quercetin] | enhance | significantly enhance |  |  |  |
| O=c1c(O)c(-c2cc(O)c(O)c(O)c2)oc2cc(O)cc(O)c12 [Myricetin, reference compound] |  | does not have such a function |  |  |  |
| O=c1c(O)c(-c2ccc(O)cc2)oc2cc(O)cc(O)c12 [kaempferol, Kaempferol] | enhance | significantly enhance | significantly enhanced | significantly enhanced | suppression |
